{"source": "patent US7498445B2", "about": "“Thiazole-based nitric oxide donors capable of releasing two or more nitric oxide molecules and uses thereof” (priority 2004, dated 2009)", "key": {"[1]": {"tested_on": "isolated rat aorta", "test": "In vitro vasorelaxation of epinephrine-contracted rat aortic rings (CCRC)", "assay_type": "cell-based", "settings": "isolated rat aorta pre-treated in vitro with 1 μM epinephrine; for vasorelaxation effect as compared with glyceryltrinitrate: in words", "source_text": "Male Sprague Dawley rats were anaesthetized using intraperitoneal injection of ketamine and xylazine (50 and 10 milligram per kilogram, respectively) and the thoracic aorta, the large upper portion of the descending aorta, starting at the caudal border of the chest bone, was removed thereafter, while carefully removing the paraadventetial tissue surrounding the vessel. Aortae were cut into rings of 4-5 millimeters and mounted onto the tissue path. The path buffer (Krebs-bicrbonate) was constantly gassed with carbogen and maintained at 37° C. The rings were preloaded under 2 g tension and equilibrated for 90 minutes, while refreshing the buffer every 15 minutes. After stabilization, the rings were contracted with epinephrine (1 μM). Cumulative Concentration—Response Curves (CCRC) were measured for the vasorelaxing effect induced by adding various concentrations, ranging from 10^−10 M to 10^−5 M of Pet-2, Pet-3, Pet-7, Pet-8, Pet-12, Pet-24, Pet-43, Pet-59, Pet-147, Pet-152 and Pet-154, and glyceryltrinitrate (GTN), according to the procedure described in Feelich et al., Molecular Pharmacology, 56:243-253 (1999), The vehicle, which was used for this experiment was water:ethanol:propyleneglycol at proportional ratio of 1:1:1.\nThe vasorelaxing effect of the thiazole-derived NO-donors according to the present invention was measured on slices of thoracic aorta of rats contracted with epinephrine, as described hereinabove."}, "[2]": {"tested_on": "c-GMP in slices of thoracic aorta of rats", "test": "Cyclic-GMP measurement in aortic rat tissue (radioimmunoassay)", "assay_type": "cell-based", "settings": "in words; for levels of cGMP as compared with GTN: isolated rat aorta, FIGS. 25, 27, 33", "experimental": "GTN (10^−6 M) was added to the chamber and, 1 minute after exposure to the drug, rings (usually 3-5) were taken, wrapped with aluminum foil and immediately frozen in liquid nitrogen for storage. Control sample group was treated with the vehicle solution only. At the time of analysis, rings were thawed, blotted over a dry gauzed and weighted. A known weight of tissue was homogenized in 2 ml ice-cold modified Hank's balanced salt solution containing (in gram/liter) NaCl 8; KCl 0.4; glucose 1; KH2PO4 0.06; Na2HPO4 0.047; Phenol red 0.017 and further containing 25 mM EDTA (disodium salt). The homogenate was centrifuged at 4000 g (force units) for 10 minutes at 2-4° C. and the supernatant was thereafter transferred into fresh pre-cooled test tube containing 1 ml of acetonitrile. The tubes were vortex mixed for a few seconds and subsequently centrifuged at 4000 g for 5 minutes at 2-4° C., to remove the precipitated protein. Each supernatant was transferred into a clean test tube and evaporated to dryness under a stream of nitrogen at 55° C. The dry residue was reconstituted with 10 volumes of Tris-EDTA buffer pH 7.5 (0.05 M Tris containing 4 mM EDTA). Aliquots of 100 μl of the reconstituted solution in duplicate were used for c-GMP measurements using Amersham RIA kit, as is described in Haj-Yehia & Benet [Pharmacology, 1995, 273, 1, pp. 94-100]. Standard curves were plotted with six concentrations (0, 0.5, 1, 2, 4 and 8 pmoles of c-GMP per tube).\nThe NO-tolerance effect of GTN and NO-donor compounds according to the present invention was measured by following the production of c-GMP in slices of thoracic aorta of rats. Thus, the production of c-GMP was measured as described in the methods section above for the reference NO-donor compound GTN, and for the NO-donors of the present invention Pet-2, Pet-3, Pet-7, Pet-8, Pet-10, Pet-12, Pet-24, Pet-59, Pet-147, Pet-149, Pet-152, Pet-154 and Pet-155."}, "[3]": {"tested_on": "isolated rat aorta", "test": "In vitro induction of tolerance and cross-tolerance: vasorelaxation of pre-exposed rat aortic rings", "assay_type": "cell-based", "settings": "in words; for tolerance induction in vitro: rings pre-treated with epinephrine and then with the same compound (0.44 mM) versus control", "experimental": "Aortic rings were prepared as described hereinabove, and were exposed to 0.44 mM GTN (vehicle was water:ethanol:propyleneglycol at proportional ratio of 1:1:1) for 1 hour before CCRC construction, to thereby induce tolerance to nitroglycerine. At the end of the tolerance induction period, rings were thrice washed with the path buffer (Krebs-bicrbonate) every 15 minutes for the following hour and then CCRC for vasorelaxation on GTN-induced tolerance rings were constructed for GTN (pretreated versus untreated rings, FIG. 15), in order to verify the ability to induce and measure GTN tolerance induction in vitro Attempted induction of tolerance to the NO-donating compounds of the present invention was performed under the same conditions as for GTN. Thus, in an exemplary experiment, rings were exposed to 0.44 mM solution of Pet-3 in the attempt to induce tolerance for Pet-3. CCRC were then measured for the vasorelaxing effect of Pet-3 on a group of rings which were pre-exposed to Pet-3 as to induce tolerance to Pet-3, and for an untreated control group. The above protocol was repeated with Pet-2, Pet-7, Pet-8, Pet-12, Pet-24, Pet-43, Pet-149 and Pet-152.\nCross-tolerance studies were conducted using the same technique described above for measuring vasorelaxation of aortic rings from rats. Two groups of aortic rings samples were pre-treated with GTN, then one group was measured for vasorelaxation by GTN and the second group for vasorelaxation by Pet-12, an exemplary NO-donor according to the present invention. For the opposite cross-tolerance studies, two groups of aortic rings samples were pre-treated with Pet-12, then one group was measured for vasorelaxation by GTN and the second group for vasorelaxation by Pet-12."}, "[4]": {"tested_on": "cyclic-GMP in isolated aorta of rats pre-treated in vivo", "test": "Induction of in vivo nitrate tolerance: cGMP in aorta of rats infused for 16 hours", "set-up": "species or system rat", "settings": "rats infused 200 μg/hour for 16 hours, aorta then exposed to 1 μM; in words", "experimental": "For c-GMP levels and tolerance development, the rat's thoracic aorta was isolated after exposure to the tested compound in vivo, and measured as described above in the in vitro assays.\nMale Sprague Dawley rats (220 to 250 grams) were housed under constant temperature and humidity conditions. Light was maintained at a 12/12 light dark cycle. Except for 12 hours before the experiment, when food fasting was initiated, all rats had free access to standard rat pellet diet and tap water. The animals were anesthetized by intraperitoneal injection of ketamine and xylazine combination (50 and 10 milligram per kilogram, respectively). […] The catheters were filled with normal saline solution containing 1000 IU/ml of heparin and plugged with a metal pin. Catheters were externalized to the back of the neck region and secured by a polyester felt disk.\nAfter implantation, the rats were individually housed until they regained their preoperative weight and appeared healthy (3 to 4 days post-operation). At this time point (day 0), an osmotic mini-pump (Alza Corp., Palo Alto, Calif.) delivering constant volume (10 μl/hour) of vehicle or drug was connected to one of the intravenous catheters.\nFor inducing tolerance to the tested NO-donor according to the present invention, the animals received 200 μg/hour of the tested compound for 16 hours (short-term-induced tolerance). […]"}, "[5]": {"tested_on": "anesthetized hypertensive Sprague-Dawley male rats", "test": "Hypotensive effects: mean arterial pressure after iv bolus in phenylephrine-treated rats", "assay_type": "in vivo, rat", "settings": "rats pre-treated with phenylephrine, in words", "experimental": "Mean arterial pressure (MAP) was monitored and determined during bolus infusion of Pet-2, Pet-3, Pet-7, Pet-8, Pet-12 and Pet-13. Briefly, polyethylene catheters (PE50) were inserted into the carotid artery and into the jugular vein of anesthetized hypertensive Sprague-Dawley male rats (200-300 grams). A blood pressure recorder was placed within the carotid artery. Phenylephrine (0.1 mg) was then injected and the mean arterial blood pressure (MABP) was monitored continuously until a stable baseline was reached. The hypotensive effects of intravenous (iv) bolus doses (0.1 mg of each tested compound) administered intravenously at the jugular vein in minimal volume of vehicle (0.2 ml per dose) were evaluated. Five minutes were allowed between each dose, during which the maximal decrease in MAP was recorded and a dose-response graph comparing the hypotensive effect of the compounds was constructed."}}, "note": "“Also recorded” adds a separate entry of the source.", "data": [{"smiles": "Cc1nc(-c2ccccc2)sc1CCO[N+](=O)[O-]", "note": "[Pet-8, 4-Methyl-5-(2-nitrooxy-ethyl)-2-phenyl-thiazole]", "values": [{"measurement": "vasorelaxation effect as compared with glyceryltrinitrate", "setting": "[1]", "result": "superior vasorelaxation effect"}, {"measurement": "levels of cGMP as compared with GTN", "setting": "[2]", "result": "increased levels of cGMP"}]}, {"smiles": "CNc1cncc(-c2nc(C)c(CCO[N+](=O)[O-])s2)n1", "note": "[Pet-24, Methyl-{6-[4-methyl-5-(2-nitrooxy-ethyl)-thiazol-2-yl]-pyrazin-2-yl}-amine]", "values": [{"measurement": "levels of cGMP as compared with GTN", "setting": "[2]", "result": "increased levels of cGMP"}, {"measurement": "tolerance induction in vitro", "setting": "[3]", "result": "absence of tolerance induction"}]}, {"smiles": "Cc1nc(C)c(CCO[N+](=O)[O-])s1", "note": "[Pet-3, 2,4-Dimethyl-5-(2-nitrooxy-ethyl)-thiazole]", "values": [{"measurement": "vasorelaxation effect as compared with glyceryltrinitrate", "setting": "[1]", "result": "superior vasorelaxation effect"}, {"measurement": "levels of cGMP as compared with GTN", "setting": "[2]", "result": "increased levels of cGMP"}, {"measurement": "tolerance induction in vitro", "setting": "[3]", "result": "absence of tolerance induction"}]}, {"smiles": "Cc1nc(NC(=O)c2cccnc2)sc1CCO[N+](=O)[O-]", "note": "[Pet-154, N-[4-methyl-5-(2-nitrooxy-ethyl)-thiazol-2-yl]-nicotinamide]", "values": [{"measurement": "levels of cGMP as compared with GTN", "setting": "[2]", "result": "increased levels of cGMP"}]}, {"smiles": "Cc1nc(Nc2cccc3ccccc23)sc1CCO[N+](=O)[O-]", "note": "[Pet-149, [4-Methyl-5-(2-nitrooxy-ethyl)-thiazol-2-yl]-naphthalen-1-yl-amine]", "values": [{"measurement": "vasorelaxation effect as compared with glyceryltrinitrate", "setting": "[1]", "result": "superior vasorelaxation effect"}, {"measurement": "levels of cGMP as compared with GTN", "setting": "[2]", "result": "increased levels of cGMP"}, {"measurement": "tolerance induction in vitro", "setting": "[3]", "result": "absence of tolerance induction"}]}, {"smiles": "Cc1nc(N(C)C)sc1CCO[N+](=O)[O-]", "note": "[Pet-7, Dimethyl-[4-methyl-5-(2-nitrooxy-ethyl)-thiazol-2-yl]-amine]", "values": [{"measurement": "vasorelaxation effect, fold higher than glyceryltrinitrate", "setting": "[1]", "result": 10, "unit": "fold"}, {"measurement": "vasorelaxation effect as compared with glyceryltrinitrate", "setting": "[1]", "result": "superior"}, {"measurement": "levels of cGMP as compared with GTN", "setting": "[2]", "result": "increased levels of cGMP"}, {"measurement": "tolerance induction in vitro", "setting": "[3]", "result": "absence of tolerance induction"}]}, {"smiles": "C=CCNc1nc(C)c(CCO[N+](=O)[O-])s1", "note": "[Pet-155, allyl-[4-methyl-5-(2-nitrooxy-ethyl)-thiazol-2-yl]-amine]", "values": [{"measurement": "vasorelaxation effect as compared with glyceryltrinitrate", "setting": "[1]", "result": "superior vasorelaxation effect"}, {"measurement": "levels of cGMP as compared with GTN", "setting": "[2]", "result": "increased levels of cGMP"}]}, {"smiles": "Cc1nc(-c2cccnc2)sc1CCO[N+](=O)[O-]", "note": "[Pet-12, 3-[4-Methyl-5-(2-nitrooxy-ethyl)-thiazole-2-yl]-pyridine]", "values": [{"measurement": "level of cGMP following a repeated treatment in vivo (tolerance induction)", "setting": "[4]", "result": "absence of tolerance induction; also recorded: lack of tolerance induction"}, {"measurement": "cross-tolerance: vasorelaxation in rings pre-treated with GTN", "setting": "[3]; rat aortic rings pre-treated with epinephrine and then with GTN", "result": "absence of tolerance induction effect; also recorded: no effect"}, {"measurement": "cross-tolerance: vasorelaxation in rings pre-treated with Pet-12", "setting": "[3]; rat aortic rings pre-treated with epinephrine and then with Pet-12", "result": "absence of tolerance induction effect; also recorded: does not evoke tolerance to itself not to GTN"}, {"measurement": "tolerance induction in vitro", "setting": "[3]", "result": "absence of tolerance induction"}]}, {"smiles": "Cc1nc(N)sc1CCO[N+](=O)[O-]", "note": "[Pet-10, 4-methyl-5-(2-nitrooxy-ethyl)-thiazole-2-ylamine]", "values": [{"measurement": "levels of cGMP as compared with GTN", "setting": "[2]", "result": "increased levels of cGMP"}]}, {"smiles": "CCNc1nc(C)c(CCO[N+](=O)[O-])s1", "note": "[Pet-147, Ethyl-[4-methyl-5-(2-nitrooxy-ethyl)-thiazol-2-yl]-amine]", "values": [{"measurement": "levels of cGMP as compared with GTN", "setting": "[2]", "result": "increased levels of cGMP"}]}, {"smiles": "O=[N+]([O-])OCC(CO[N+](=O)[O-])O[N+](=O)[O-]", "note": "[GTN, glyceryl trinitrate, reference compound]", "values": [{"measurement": "hypotensive effect on MAP following successive administrations", "setting": "[5]", "result": "attenuation in its effect on MAP"}, {"measurement": "level of cGMP following a repeated treatment in vivo (tolerance induction)", "setting": "[4]", "result": "tolerance inducing effect; also recorded: decreased"}, {"measurement": "c-GMP level following a repeated treatment", "setting": "[2]; thoracic aorta of rats", "result": "significantly reduced"}, {"measurement": "tolerance induction in vitro", "setting": "[3]", "result": "tolerance induced by treatment with GTN"}]}, {"smiles": "Cc1nc(Nc2nc(C)c(CCO[N+](=O)[O-])s2)sc1CCO[N+](=O)[O-]", "note": "[Pet-43, Bis-[4-methyl-5-(2-nitrooxy-ethyl)-thiazol-2-yl]-amine]", "values": [{"measurement": "vasorelaxation effect as compared with glyceryltrinitrate", "setting": "[1]", "result": "superior vasorelaxation effect"}, {"measurement": "tolerance induction in vitro", "setting": "[3]", "result": "absence of tolerance induction"}]}, {"smiles": "Cc1nc(NC(=O)[C@@H](C)c2ccc(CC(C)C)cc2)sc1CCO[N+](=O)[O-]", "note": "(stereo in doubt) [Pet-152, 2-(4-Isobutyl-phenyl)-N-[4-methyl-5-(2-nitrooxy-ethyl)-thiazol-2-yl]-propionamide]", "values": [{"measurement": "vasorelaxation effect as compared with glyceryltrinitrate", "setting": "[1]", "result": "superior vasorelaxation effect"}, {"measurement": "levels of cGMP as compared with GTN", "setting": "[2]", "result": "increased levels of cGMP"}]}, {"smiles": "Cc1nc(-c2ccc(C(F)(F)F)cc2)sc1CCO[N+](=O)[O-]", "note": "[Pet-59, 4-Methyl-5-(2-nitrooxy-ethyl)-2-(4-trifluoromethyl-phenyl)-thiazole]", "values": [{"measurement": "vasorelaxation effect as compared with glyceryltrinitrate", "setting": "[1]", "result": "superior vasorelaxation effect"}, {"measurement": "levels of cGMP as compared with GTN", "setting": "[2]", "result": "increased levels of cGMP"}]}]}
